Assay results from publication PMC8941652 (European journal of medicinal chemistry, 2022).
Like-named read-outs stand apart in the source and are kept apart here.

Tests used:
[1] = test system: Mycobacterium tuberculosis H37Rv; format: cell-based; conditions: for MIC: H37Rv, 7H9 liquid medium, at least 90% growth inhibition, 10 days
[2] = format: in vivo, CD-1 female mice; conditions: p.o. 25 mg/kg, CMC/Tween80 suspension, compared with parent PAS
[3] = test system: Drug susceptible Mtb strains; experiment: microbe, parasite or virus in culture; format: cell-based; conditions: Mycobacterium tuberculosis
[4] = test system: Mycobacterium tuberculosis; conditions: cited from earlier work
[5] = p.o. 25 mg/kg

Structure (SMILES) | MIC [1] | MIC [3] | other results
CC(C)OC(=O)c1ccc(N)cc1O [Compound 5, Isopropyl 4-amino-2-hydroxybenzoate] | abolished activity | – | –
CC(C)(C)C(=O)OCOC(=O)c1ccc(N)cc1O [Compound 6, (Pivaloyloxy)methyl 4-amino-2-hydroxybenzoate] | – | – | oral bioavailability of PAS released from the suspension of prodrug [2]: significantly lower than the parent PAS
Nc1cc(O)c(C(=O)O)cc1F [Compound 11, 4-Amino-5-fluoro-2-hydroxybenzoic acid] | – | 6.3 to 25 µM | MIC ([3]; read-out: MICs against the drug susceptible and MDR strains): 6.3 to 50 µg/mL
CNc1ccc(C(=O)O)c(O)c1 [Compound 14, 2-Hydroxy-4-(methylamino)benzoic acid] | inactive | – | antitubercular potency relative to PAS [4]: nearly equipotent to PAS
[N-]=[N+]=Nc1ccc(C(=O)O)c(O)c1 [Compound 15, 4-Azido-2-hydroxybenzoic acid] | weakly active | – | loss of activity compared to PAS ([1]; H37Rv MIC): ~200 fold; formation of PAS in vivo [5]: no formation of PAS in vivo
CCOC(=O)c1cc(F)c(N)cc1O [Compound 16, Ethyl 4-amino-5-fluoro-2-hydroxybenzoate] | inactive | – | –
CC(=O)NC[C@H]1CN(c2ccc(N3CCOCC3)c(F)c2)C(=O)O1 [Linezolid] | – | 0.7 to 1.9 µM | –
Nc1ccc(C(=O)O)c(O)c1 [PAS, para-Aminosalicylic acid] | – | 0.2 to 0.6 µM | –
